Holding throughout (type): biochemical
One assay concerns the target T1, PARP-3 (Homo sapiens, UniProt Q9Y6F1).
T1 construct: made in house
T1 sequence (Q9Y6F1 1-533): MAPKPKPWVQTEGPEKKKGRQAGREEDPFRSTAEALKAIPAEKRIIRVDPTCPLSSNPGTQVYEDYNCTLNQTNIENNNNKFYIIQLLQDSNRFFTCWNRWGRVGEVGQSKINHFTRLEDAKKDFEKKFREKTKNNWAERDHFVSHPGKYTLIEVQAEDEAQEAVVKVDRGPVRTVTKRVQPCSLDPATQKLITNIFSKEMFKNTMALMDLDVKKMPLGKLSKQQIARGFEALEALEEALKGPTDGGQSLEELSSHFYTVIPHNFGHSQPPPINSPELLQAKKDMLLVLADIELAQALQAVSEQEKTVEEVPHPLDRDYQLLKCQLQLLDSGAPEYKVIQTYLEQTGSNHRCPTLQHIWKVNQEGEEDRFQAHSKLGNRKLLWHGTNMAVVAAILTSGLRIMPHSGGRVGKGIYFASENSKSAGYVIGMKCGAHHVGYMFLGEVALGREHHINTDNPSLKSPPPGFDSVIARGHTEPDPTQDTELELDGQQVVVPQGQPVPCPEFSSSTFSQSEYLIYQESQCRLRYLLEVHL
In words: auto(ADP-ribosyl)ation of PARP-3. The source says:
(§1) The oligonucleotides were purchased from Biosset (Novosibirsk, Russia). The reagents, solvents and the basic components of buffers were purchased from Sigma (St. Louis, MO, USA), Acros organics (Waltham, MA, USA) or Promega (Madison, WI, USA). γ–[^32P]-ATP and α–[^32P]-ATP (with specific activities of 5000 and 3000 Ci/mmol, respectively) were from the Laboratory of Biotechnology (Institute of Chemical Biology and Fundamental Medicine, Novosibirsk, Russia). T4 polynucleotide kinase was from Biosan (Novosibirsk, Russia). SUMO fusion expression vector pETHSUL (GenBank: EF205333.1) and pSUPER vector coding for the catalytic domain of the S. cerevisiae SUMO hydrolase dtUD1 were kindly provided by Dr. P. Loll (Drexel University, Philadelphia, USA). His6 and Strep-II double-tagged dtUD1 hydrolase was expressed and purified as described in ref. [81]. Human recombinant poly(ADP-ribose)-polymerase 1 (EC 2.4.2.30) was prepared as described previously. Murine recombinant poly(ADP-ribose)-polymerase 2 (EC 2.4.2.30) was purified as described previously. Plasmid encoding human PARP-3 was kindly provided by Dr. A. Ishchenko (Gustave Roussy, Université Paris-Saclay, France). Poly(ADP-ribose)-polymerase 3 (EC 2.4.2.30) was purified according to [6].
The reactions were performed in the presence of 2 mM MgCl2 as a cofactor in HDB buffer. The reaction mixtures (final volume 10 μL) contained 0.1 μM DNA substrate, 0.5 μM PARP-3, 5 μM [^32P]-NAD+ and 0, 35 or 95 μM NAD+ in the absence or presence of various concentrations of the inhibitor, which are indicated on the figures. The reaction mixtures were incubated for 20 min at 37 °С then terminated by adding the 5x gel loading Laemmli sample buffer and heating at 85 °C for 10 min. The mixtures were resolved on a 10% SDS-PAG as described in [84] The gels were dried and subjected to autoradiography and/or phosphorimaging for quantitation using the Typhoon imaging system from GE Healthcare Life Sciences. Quantitative processing was carried out using OriginPro7.5, Microcal Software, USA. […]

Assay [1] deals with T2, Murine recombinant poly(ADP-ribose)-polymerase 2 (Mus musculus, UniProt O88554).
T2 construct: made in house
As to the kind of experiment: autopoly(ADP-ribosyl)ation of PARP-2, [32P]NAD+ incorporation. Particulars: autopoly(ADP-ribosyl)ation, 0.6 mM NAD+.
From the text: as §1
(§2) The reaction of autopoly(ADP-ribosyl)ation was carried out as follows: for PARP-1 50 mM tris-HCl, pH 8.0, 20 mM MgCl2, 150 mM NaCl, and 7 mM β-mercaptoethanol, activated DNA 2 OE/mL, 0.3 mM [^32P] NAD+ at 37 °C. The reaction was initiated by adding PARP-1 to 200 nM and the reaction mixtures were incubated for 1.5 min. For PARP-2: 50 mM tris-HCl, pH 8.0, 3 mM spermin, 150 mM NaCl, and 7 mM β-mercaptoethanol, activated DNA 2 OE/mL, 0.6 mM [^32P] NAD+ at 37 °C. The reaction was initiated by adding PARP-2 to 800 nM and the reaction mixtures were incubated for 5 min. The reaction was stopped by placing 10 μL aliquots onto Whatman 1 paper filters soaked with 5 % TCA. The filters were washed with 5% TCA for four times and dried in air after the removal of TCA with 90% ethanol. The incorporation of radioactivity into the product was calculated with a Tri-Carb 2800 scintillation counter (Perkin Elmer, Waltham, MA, USA) according to the Cherenkov method or using Typhoon FLA 9500 scanner (GE Healthcare, Chicago, IL, USA). To determine the IC50 value of inhibitors (concentration of the compound required reducing the enzyme activity by 50%), we studied the activity of the enzyme at different concentrations of inhibitors. Measurements were done in at least two independent experiments. IC50 values were calculated using the Origin Pro 8.0 software by nonlinear regression analysis.

In a further assay the target is T3, PARP-1 (Homo sapiens, UniProt P09874).
T3 construct: made in house
In words: kinetics of PARP-1 inhibition (Km, Vmax, type of inhibition) by fluorescence anisotropy. Particulars: for type of inhibition: PARP-1 catalyzed reaction, versus NAD+. The protocol: The type of inhibition was determined based on at what stage of the reaction the inhibitor binds to the enzyme (before or after the substrate binding) and where it binds (at the substrate binding site or elsewhere). There are four types of inhibition: competitive, whereby an inhibitor binding occurs at the substrate-binding site; noncompetitive, where an inhibitor binds at the allosteric center; mixed with inhibitor binding at both the active and allosteric center; or uncompetitive under an inhibitor binding to the enzyme-substrate complex. Determination of the type of inhibition is necessary to confirm the computer simulation data and to plan further modifications of the inhibitor structure. The type of inhibition can be determined from the plots of the reaction parameters, such as maximum rates, Vmax and the apparent Michaelis constant, Km, values, versus inhibitor concentration. […] Noncompetitive inhibition leads to a decrease of Vmax and retention of the Km values. Mixed inhibition is a superposition of the first two, and is characterized by a decrease in the reaction rate and an increase in Km values. In the case of uncompetitive inhibition, both […].
To determine the type of inhibition of the studied compounds, the activity of PARP-1 was measured at presence of three different inhibitor concentrations at nine NAD+ substrate concentrations by the fluorescence anisotropy technique. Based on the obtained data, dependence graphs of the initial reaction rate on the substrate concentration were constructed, and reaction parameters such as maximum reaction rate (Vmax) and apparent Michaelis constant (Km) values were found (Tables S3 and S4, Supporting). To determine the type of inhibition, we plotted the dependence graph of Vmax and Km values on the inhibitor concentration using OriginPro 8.6.0 software. (Figure 3). […] Therefore, the results of modeling of the binding type of these compounds in the enzyme’s active center are legitimate.
The determination of the kinetic parameters of inhibition Km and Vmax was carried out as described. In all experiments, the points on the experimental curves represent the average of a minimum three independent experiments.
On the technique in general: Fluorescence polarisation rises when a labelled molecule tumbles more slowly, as on binding a larger partner.

Assay [2] deals with T4, Human recombinant poly(ADP-ribose)-polymerase 1 (Homo sapiens, UniProt P09874).
T4 construct: made in house
In words: autopoly(ADP-ribosyl)ation of PARP-1, [32P]NAD+ incorporation. Particulars: autopoly(ADP-ribosyl)ation, 0.3 mM NAD+.
From the text: as §1, §2

T4 sequence (P09874 whole entry): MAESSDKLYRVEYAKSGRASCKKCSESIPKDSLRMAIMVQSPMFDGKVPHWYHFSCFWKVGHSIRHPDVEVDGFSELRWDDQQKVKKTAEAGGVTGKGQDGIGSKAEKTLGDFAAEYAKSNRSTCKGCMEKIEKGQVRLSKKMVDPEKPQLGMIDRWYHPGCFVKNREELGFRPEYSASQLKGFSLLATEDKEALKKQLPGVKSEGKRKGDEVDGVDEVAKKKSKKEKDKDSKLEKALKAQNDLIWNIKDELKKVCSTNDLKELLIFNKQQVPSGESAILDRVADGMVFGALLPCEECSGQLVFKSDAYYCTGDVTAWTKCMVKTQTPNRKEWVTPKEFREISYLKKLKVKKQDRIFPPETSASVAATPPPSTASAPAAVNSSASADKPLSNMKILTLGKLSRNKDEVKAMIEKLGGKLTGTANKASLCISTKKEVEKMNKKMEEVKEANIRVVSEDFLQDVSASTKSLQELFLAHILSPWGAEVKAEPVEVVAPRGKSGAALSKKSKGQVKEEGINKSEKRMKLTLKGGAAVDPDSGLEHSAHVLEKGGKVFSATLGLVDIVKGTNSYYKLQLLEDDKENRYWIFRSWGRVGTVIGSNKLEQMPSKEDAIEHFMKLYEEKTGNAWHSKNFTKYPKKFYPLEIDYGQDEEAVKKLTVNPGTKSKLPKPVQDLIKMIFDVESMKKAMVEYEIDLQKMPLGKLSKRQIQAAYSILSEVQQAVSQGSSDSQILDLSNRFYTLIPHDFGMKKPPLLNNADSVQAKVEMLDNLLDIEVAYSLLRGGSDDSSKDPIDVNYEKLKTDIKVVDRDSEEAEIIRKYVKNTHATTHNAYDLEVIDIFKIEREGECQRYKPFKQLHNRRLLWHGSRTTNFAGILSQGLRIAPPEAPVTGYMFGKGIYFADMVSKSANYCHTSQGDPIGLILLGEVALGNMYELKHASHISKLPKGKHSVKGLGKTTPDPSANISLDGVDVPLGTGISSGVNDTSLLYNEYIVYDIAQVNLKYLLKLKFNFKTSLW
T3 sequence (P09874 whole entry): as above
T2 sequence (O88554 whole entry): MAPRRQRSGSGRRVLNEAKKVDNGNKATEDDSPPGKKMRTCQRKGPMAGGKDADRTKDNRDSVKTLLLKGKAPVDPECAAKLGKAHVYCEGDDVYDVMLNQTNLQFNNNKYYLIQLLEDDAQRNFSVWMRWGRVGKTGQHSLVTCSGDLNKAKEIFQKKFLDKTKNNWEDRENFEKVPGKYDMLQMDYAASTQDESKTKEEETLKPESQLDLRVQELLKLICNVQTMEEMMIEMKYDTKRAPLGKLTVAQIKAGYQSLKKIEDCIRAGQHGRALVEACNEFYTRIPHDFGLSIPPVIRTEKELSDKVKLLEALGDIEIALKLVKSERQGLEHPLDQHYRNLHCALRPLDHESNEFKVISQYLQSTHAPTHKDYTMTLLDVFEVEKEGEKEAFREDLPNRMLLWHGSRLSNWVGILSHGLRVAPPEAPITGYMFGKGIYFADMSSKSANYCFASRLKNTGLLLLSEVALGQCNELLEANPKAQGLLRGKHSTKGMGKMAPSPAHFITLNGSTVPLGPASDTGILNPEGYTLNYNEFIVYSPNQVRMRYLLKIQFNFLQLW

On to `Nc1ncnc2c1ncn2C1CNCC(CNP(=O)(O)OP(=O)(O)OCC2OC(n3cnc4c(N)ncnc43)C(O)C2O)O1` (stereo not drawn) [Compound 10A], for which, at PARP-3, the “activity against PARP-3” value was “lack of activity”. Moreover, the half-inhibitory concentration (IC50) is 63 ± 10 µM in assay [1] and 353 ± 4 µM in assay [2]. Further, the type of inhibition entry on PARP-1 is “mixed inhibitor”. Moreover, the results for the Vmax on PARP-1 (inhibitor concentration 300 μМ), at PARP-1 (inhibitor concentration 600 μМ) and on PARP-1 (inhibitor concentration 900 μМ) were 0.090 RFU/sec, 0.068 RFU/sec and 0.062 RFU/sec, respectively.
Regarding `Nc1ncnc2c1ncn2C1OC(COP(=O)(O)OP(=O)(O)NCC2CNCC(n3cc(I)c(=O)[nH]c3=O)O2)C(O)C1O` (stereo not drawn) [Compound 10IU], at PARP-3, the “activity against PARP-3” value is “low activity”. Also, at PARP-3 (1 mM concentration), the “inhibitory activity in the auto(ADP-ribosyl)ation reaction of PARP-3” value was “significant inhibitory activity”. For the same compound, the IC50 in assay [1] is 110 µM; in assay [2] it was 126 µM. For the same compound, at PARP-1, the type of inhibition entry is “competitive inhibitors”. In addition, the Vmax at PARP-1 (inhibitor concentration 50 μМ) worked out at 0.19 RFU/sec; at PARP-1 (inhibitor concentration 100 μМ), 0.18 RFU/sec; at PARP-1 (inhibitor concentration 500 μМ), 0.17 RFU/sec.
With `O=c1[nH]c(=O)n([C@H]2CNC[C@@H](CO)O2)cc1I` [Compound 11IU], the IC50 was determined as 85 ± 9 µM in assay [1] and 53 ± 12 µM in assay [2]. In addition, the type of inhibition entry at PARP-1 was “competitive inhibitors”. Further, the Vmax came to 0.066 RFU/sec at PARP-1 (inhibitor concentration 50 μМ), 0.066 RFU/sec at PARP-1 (inhibitor concentration 100 μМ) and 0.060 RFU/sec on PARP-1 (inhibitor concentration 500 μМ).

As a reminder, the IC50 is the concentration that inhibits the measured activity by half.

The values above are taken from publication PMC6982223, “Design, Synthesis and Molecular Modeling Study of Conjugates of ADP and Morpholino Nucleosides as A Novel Class of Inhibitors of PARP-1, PARP-2 and PARP-3” (International Journal of Molecular Sciences, 2019).
